Measured values as given in patent publication US9888689B2, “Compositions containing a pyripyropene insecticide and an adjuvant” (BASF SE, priority 2010, dated 2018).
One block for each molecule: values may come before it.

Assays:
[1] = Stability of crystalline hydrate forms of compound of formula I; assay type: physicochemical
Text: As pointed out above, a further aspect of the present invention relates to the hydrate B of the compound of formula I. Form B is a non-stoichiometric hydrate of the compound of formula I. The typical water content is in the range from 7.5 to 9 wt % and in particular about 8.5 wt %, i.e. 8.5±0.2 wt %. The water content can be determined by thermo-gravimetric analysis (TGA).

[2] = test system: larvae of Helicoverpa zea; conditions: cited from earlier work
[3] = test system: Plutella xylostella L larvae; conditions: cited from earlier work
Tenebrio molitor L = conditions: cited from earlier work

conversion of the hydrate form ([1]; dried at elevated temperatures, e.g. >50 °C): slowly converts into amorphous material
stability of the hydrate form ([1]; room temperature, in contact with aqueous solvent or water or at high degrees of humidity, e.g. 90%): stable
conversion of the hydrate form ([1]; when the mother liquor is removed or humidity is reduced): slowly converts into form C
Compound: C[C@]1(COC(=O)C2CC2)[C@@H]2C[C@H](O)[C@@]3(C)Oc4cc(-c5cccnc5)oc(=O)c4[C@H](O)[C@@H]3[C@@]2(C)CC[C@@H]1OC(=O)C1CC1 [Form B]

Compound: C[C@]1(COC(=O)C2CC2)[C@@H]2C[C@H](O)[C@@]3(C)Oc4cc(-c5cccnc5)oc(=O)c4[C@H](O)[C@@H]3[C@@]2(C)CC[C@@H]1OC(=O)C1CC1 [Form C]
stability of the hydrate form ([1]; ambient conditions): stable at ambient conditions over weeks and month

Compound: CC(=O)OC[C@@]1(C)[C@@H]2C[C@H](OC(C)=O)[C@@]3(C)Oc4cc(-c5cccnc5)oc(=O)c4[C@H](O)[C@@H]3[C@@]2(C)CC[C@@H]1OC(C)=O [Pyripyropene A]
insecticidal activity [2]: insecticidal activity
insecticidal activity [3]: insecticidal activity
insecticidal activity (Tenebrio molitor L): insecticidal activity
